In paper PMC10065799, “High-throughput profiling of sequence recognition by tyrosine kinases and SH2 domains using bacterial peptide display” (eLife, 2023):

Biological target: T1, c-Abl kinase domain (Mus musculus, UniProt P00520)
T1 sequence (P00520 242-493 limits assumed): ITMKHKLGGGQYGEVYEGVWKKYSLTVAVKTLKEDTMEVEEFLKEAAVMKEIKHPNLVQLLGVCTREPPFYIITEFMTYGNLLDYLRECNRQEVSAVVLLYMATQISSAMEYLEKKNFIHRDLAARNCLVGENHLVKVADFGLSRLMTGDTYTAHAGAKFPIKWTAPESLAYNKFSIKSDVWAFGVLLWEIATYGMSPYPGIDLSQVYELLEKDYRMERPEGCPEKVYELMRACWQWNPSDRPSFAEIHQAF
Assay: pTyr-Var library bacterial peptide display kinase screen (enrichment scores)
Type: biochemical
Details: variant versus reference peptide

Sequence	c-Abl difference (mean log2 variant - mean log2 reference)
ATVQNYLPKCI [A2M_Y817_L815Q]	-0.04049
LHVGFYESDVM [A2M_Y708_R704H]	-1.318
